Measurements as given in the NIST ThermoML archive (doi:10.1021/je900596d).

Details: for mass density: Vibrating tube method; for vapor or sublimation pressure: Closed cell (Static) method

FC(F)=C(F)C(F)(F)F [hexafluoropropene]
Details	mass density [kg/m3]
357.06 K, 1651 kPa, Fluid (supercritical or subcritical phases)	106.72
357.06 K, 1667.9 kPa, Fluid (supercritical or subcritical phases)	108.13
357.06 K, 1685.3 kPa, Fluid (supercritical or subcritical phases)	109.66
357.06 K, 1702 kPa, Fluid (supercritical or subcritical phases)	111.18
357.06 K, 1718.9 kPa, Fluid (supercritical or subcritical phases)	112.75
357.06 K, 1735.9 kPa, Fluid (supercritical or subcritical phases)	114.23
357.06 K, 1753 kPa, Fluid (supercritical or subcritical phases)	115.8
357.06 K, 1769.9 kPa, Fluid (supercritical or subcritical phases)	117.29
357.06 K, 1786.9 kPa, Fluid (supercritical or subcritical phases)	118.92
357.06 K, 1803 kPa, Fluid (supercritical or subcritical phases)	120.39
357.06 K, 1819.2 kPa, Fluid (supercritical or subcritical phases)	121.89
357.06 K, 1847.5 kPa, Fluid (supercritical or subcritical phases)	124.55
357.06 K, 1875.7 kPa, Fluid (supercritical or subcritical phases)	127.36
357.06 K, 1903.2 kPa, Fluid (supercritical or subcritical phases)	130.04
357.06 K, 1931.1 kPa, Fluid (supercritical or subcritical phases)	132.82
357.06 K, 1957.3 kPa, Fluid (supercritical or subcritical phases)	135.5
357.06 K, 1986 kPa, Fluid (supercritical or subcritical phases)	138.47
357.06 K, 2038.9 kPa, Fluid (supercritical or subcritical phases)	144.14
357.06 K, 2064.4 kPa, Fluid (supercritical or subcritical phases)	146.83
357.06 K, 2091.5 kPa, Fluid (supercritical or subcritical phases)	149.92
357.06 K, 2116.5 kPa, Fluid (supercritical or subcritical phases)	152.72
357.06 K, 2145.2 kPa, Fluid (supercritical or subcritical phases)	156.08
357.06 K, 2172.7 kPa, Fluid (supercritical or subcritical phases)	159.34
357.06 K, 2200.4 kPa, Fluid (supercritical or subcritical phases)	162.66
357.06 K, 2225 kPa, Fluid (supercritical or subcritical phases)	165.74
357.06 K, 2253.6 kPa, Fluid (supercritical or subcritical phases)	169.3
357.06 K, 2283.1 kPa, Fluid (supercritical or subcritical phases)	173.12
357.06 K, 2311 kPa, Fluid (supercritical or subcritical phases)	176.88
357.06 K, 2341.3 kPa, Fluid (supercritical or subcritical phases)	180.98
357.06 K, 2367.5 kPa, Fluid (supercritical or subcritical phases)	184.68
357.06 K, 2394.8 kPa, Fluid (supercritical or subcritical phases)	188.59
357.06 K, 2419.3 kPa, Fluid (supercritical or subcritical phases)	192.26
357.06 K, 2446.6 kPa, Fluid (supercritical or subcritical phases)	196.5
357.06 K, 2475.8 kPa, Fluid (supercritical or subcritical phases)	201.14
357.06 K, 2500.5 kPa, Fluid (supercritical or subcritical phases)	205.14
357.06 K, 2527.1 kPa, Fluid (supercritical or subcritical phases)	209.62
357.06 K, 2552.5 kPa, Fluid (supercritical or subcritical phases)	214.03
357.06 K, 2579.2 kPa, Fluid (supercritical or subcritical phases)	218.88
357.06 K, 2607.1 kPa, Fluid (supercritical or subcritical phases)	224.15
357.06 K, 2634.5 kPa, Fluid (supercritical or subcritical phases)	229.51
357.06 K, 2660.8 kPa, Fluid (supercritical or subcritical phases)	234.97
357.06 K, 2686.6 kPa, Fluid (supercritical or subcritical phases)	240.49
357.06 K, 2714.4 kPa, Fluid (supercritical or subcritical phases)	246.83
357.06 K, 2743.6 kPa, Fluid (supercritical or subcritical phases)	253.76
357.06 K, 2771 kPa, Fluid (supercritical or subcritical phases)	260.83
357.06 K, 2795.2 kPa, Fluid (supercritical or subcritical phases)	267.52
357.06 K, 2819.6 kPa, Fluid (supercritical or subcritical phases)	274.69
357.06 K, 2846 kPa, Fluid (supercritical or subcritical phases)	283.07
357.06 K, 2871.1 kPa, Fluid (supercritical or subcritical phases)	291.79
357.06 K, 2896.7 kPa, Fluid (supercritical or subcritical phases)	302.07
357.06 K, 2920.7 kPa, Fluid (supercritical or subcritical phases)	312.54
357.06 K, 2945.8 kPa, Fluid (supercritical or subcritical phases)	324.88
357.06 K, 2970.4 kPa, Fluid (supercritical or subcritical phases)	338.77
357.06 K, 2995.1 kPa, Fluid (supercritical or subcritical phases)	355.46
357.06 K, 3000.2 kPa, Fluid (supercritical or subcritical phases)	359.35
357.06 K, 3002.3 kPa, Fluid (supercritical or subcritical phases)	361.25
357.06 K, 3004.8 kPa, Fluid (supercritical or subcritical phases)	363.25
357.06 K, 3007 kPa, Fluid (supercritical or subcritical phases)	365.19
357.06 K, 3009.1 kPa, Fluid (supercritical or subcritical phases)	367.24
357.06 K, 3011.2 kPa, Fluid (supercritical or subcritical phases)	369.24
357.06 K, 3013.5 kPa, Fluid (supercritical or subcritical phases)	371.38
357.06 K, 3017.2 kPa, Fluid (supercritical or subcritical phases)	375.58
357.06 K, 3020.4 kPa, Fluid (supercritical or subcritical phases)	379.51
357.06 K, 3023.1 kPa, Fluid (supercritical or subcritical phases)	383.27
357.06 K, 3025.3 kPa, Fluid (supercritical or subcritical phases)	386.99
357.06 K, 3027.3 kPa, Fluid (supercritical or subcritical phases)	391.04
358 K, 3077.4 kPa, Liquid	720.16
358 K, 3079.5 kPa, Liquid	727.89
358 K, 3081.5 kPa, Liquid	734.5
358 K, 3083.8 kPa, Liquid	736.72
358 K, 3086 kPa, Liquid	740.82
358 K, 3088.2 kPa, Liquid	744.57
358 K, 3109.3 kPa, Liquid	770.42
358 K, 3111.5 kPa, Liquid	772.98
358 K, 3116.7 kPa, Liquid	777.53
358 K, 3119.3 kPa, Liquid	780.08
358 K, 3122.7 kPa, Liquid	783.21
358 K, 3129.1 kPa, Liquid	787.86
358 K, 3135.8 kPa, Liquid	792.11
358 K, 3142.4 kPa, Liquid	796.64
358 K, 3148.6 kPa, Liquid	799.79
358 K, 3156.4 kPa, Liquid	804.75
358 K, 3177.8 kPa, Liquid	815.22
358 K, 3185.3 kPa, Liquid	818.23
358 K, 3192.2 kPa, Liquid	821.21
358 K, 3200.1 kPa, Liquid	824.15
358 K, 3210.8 kPa, Liquid	828.42
358 K, 3221.1 kPa, Liquid	831.96
358 K, 3231.6 kPa, Liquid	835.41
358 K, 3241.7 kPa, Liquid	838.72
358 K, 3252.2 kPa, Liquid	841.71
358 K, 3262.8 kPa, Liquid	844.89
358 K, 3273.9 kPa, Liquid	847.83
358 K, 3295.3 kPa, Liquid	853.38
358 K, 3306 kPa, Liquid	855.88
358 K, 3329 kPa, Liquid	860.99
358 K, 3350.7 kPa, Liquid	865.7
358 K, 3372.9 kPa, Liquid	869.87
358 K, 3394.9 kPa, Liquid	874.14
358 K, 3416.1 kPa, Liquid	877.89
358 K, 3438.3 kPa, Liquid	881.69
358 K, 3460.7 kPa, Liquid	885.32
358 K, 3482.9 kPa, Liquid	888.76
358 K, 3504.8 kPa, Liquid	892.14
358 K, 3528.7 kPa, Liquid	895.48
358 K, 3550.1 kPa, Liquid	898.37
358 K, 3572 kPa, Liquid	901.37
358 K, 3593.3 kPa, Liquid	903.96
358 K, 3626 kPa, Liquid	907.95
358 K, 3637.5 kPa, Liquid	909.42
358 K, 3650.1 kPa, Liquid	910.79
358 K, 3672 kPa, Liquid	913.13
358 K, 3692.4 kPa, Liquid	915.48
358 K, 3737.5 kPa, Liquid	920.3
358 K, 3781.6 kPa, Liquid	924.71
358 K, 3805.3 kPa, Liquid	927.04
358 K, 3827.1 kPa, Liquid	929.16
358 K, 3849.3 kPa, Liquid	931.26
358 K, 3870.8 kPa, Liquid	933.33
358 K, 3892.8 kPa, Liquid	935.23
358 K, 3914.1 kPa, Liquid	937.13
358 K, 3959.7 kPa, Liquid	940.96
358 K, 3983.8 kPa, Liquid	943.01
358 K, 4012.7 kPa, Liquid	945.18
358 K, 4046.1 kPa, Liquid	947.77
358 K, 4078.7 kPa, Liquid	950.34
358 K, 4111.6 kPa, Liquid	952.85
358 K, 4143.9 kPa, Liquid	955.16
358 K, 4176.6 kPa, Liquid	957.49

Liquid
Details	vapor or sublimation pressure [kPa]
357.06 K	3017.5
357.27 K	3031
357.47 K	3044.2
357.56 K	3050.4
